Source: patent US8148373B2, “Compounds” (AstraZeneca AB, priority 2008, dated 2012)

Key:
[1] = target: T1, Adrenergic β2 (H292 cells) (Homo sapiens, UniProt P07550); experiment: Adrenergic β2 Mediated cAMP Production, single concentration 1 μM; type: cell-based; details: NCI-H292, 1 μM compound, percentage of the maximum response generated by 1E-07M formoterol, read-out: β2 (% effect at 1 μM)
T1 construct: endogenous in cells; host or cells: H292 cells
Procedure, shortened: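 H292 cells were plated overnight, pre-treated with 300 μM rolipram for 10 min, then exposed to compound at 1 μM final (1% DMSO) for 60 min at room temperature. cAMP in the lysates was measured by AlphaScreen against a standard curve and expressed as % of the maximal response to 1E-07M formoterol.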

[2] = target: T2, human muscarinic acetylcholine M3 receptor (M3-ACh) (Homo sapiens, UniProt P20309); experiment: Muscarinic 3 Receptor Binding Assay, % inhibition specific binding at 1 μM; details: 1 μM compound, % inhibition specific [3H]-NMS binding
T2 construct: expressed in transfected cells; host or cells: CHO-K1 (Chinese Hamster Ovary) cell membranes
T2 sequence (P20309 whole entry): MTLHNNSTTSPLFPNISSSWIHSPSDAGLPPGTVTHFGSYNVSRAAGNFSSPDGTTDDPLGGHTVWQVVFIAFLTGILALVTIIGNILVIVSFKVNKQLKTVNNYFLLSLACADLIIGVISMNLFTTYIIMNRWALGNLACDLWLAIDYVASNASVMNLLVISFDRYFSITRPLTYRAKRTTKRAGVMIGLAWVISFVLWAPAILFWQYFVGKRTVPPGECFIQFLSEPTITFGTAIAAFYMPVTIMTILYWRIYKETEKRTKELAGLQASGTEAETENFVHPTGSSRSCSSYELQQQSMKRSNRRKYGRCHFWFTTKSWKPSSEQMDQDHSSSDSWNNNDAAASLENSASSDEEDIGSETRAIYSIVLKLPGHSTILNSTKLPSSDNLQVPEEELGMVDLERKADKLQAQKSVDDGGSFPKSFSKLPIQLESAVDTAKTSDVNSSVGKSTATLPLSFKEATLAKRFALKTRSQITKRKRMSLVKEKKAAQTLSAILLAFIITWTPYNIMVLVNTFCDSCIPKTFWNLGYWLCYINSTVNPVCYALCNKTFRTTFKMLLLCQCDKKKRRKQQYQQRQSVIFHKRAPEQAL
Procedure, shortened: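 Competition binding of 0.1 nM [3H]NMS to membranes from CHO-K1 cells expressing human M3, SPA format, with compound at 1 μM in 20 mM HEPES pH 7.4, 5 mM MgCl2, 1% DMSO. Incubated 16 h at room temperature; non-specific binding defined by 1 μM atropine; value is % inhibition of specific binding.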

T1 sequence (P07550 whole entry): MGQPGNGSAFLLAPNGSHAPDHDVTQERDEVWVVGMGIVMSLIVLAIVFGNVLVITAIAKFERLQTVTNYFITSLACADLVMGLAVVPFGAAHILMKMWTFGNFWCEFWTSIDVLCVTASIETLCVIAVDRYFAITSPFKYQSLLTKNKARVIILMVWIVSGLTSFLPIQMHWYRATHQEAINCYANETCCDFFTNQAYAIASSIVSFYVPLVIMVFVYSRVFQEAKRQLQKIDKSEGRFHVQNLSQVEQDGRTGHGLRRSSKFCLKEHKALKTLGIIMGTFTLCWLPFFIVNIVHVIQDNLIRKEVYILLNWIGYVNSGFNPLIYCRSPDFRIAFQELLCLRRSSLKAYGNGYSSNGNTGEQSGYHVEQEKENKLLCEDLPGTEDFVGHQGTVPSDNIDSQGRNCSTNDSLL

Row | Structure (SMILES) | activation at 1 µM [1] [%] | inhibition at 1 µM [2] [%]
1 | CC(C)(C)c1nc(C(=O)N2CCOC3(CCN(CCCCCCCCCNC[C@H](O)c4ccc(O)c5[nH]c(=O)sc45)CC3)C2)cs1 [Example 216, (R)-7-(2-(9-(4-(2-tert-butylthiazole-4-carbonyl)-1-oxa-4,9-diazaspiro[5.5]undecan-9-yl)nonylamino)-1-hydroxyethyl)-4-hydroxybenzo[d]thiazol-2(3H)-one] | 88 | 90
2 | Cc1cc(C(=O)N2CCOC3(CCN(CCCCCCCCCNC[C@H](O)c4ccc(O)c5[nH]c(=O)sc45)CC3)C2)sc1C [Example 222, (R)-7-(2-(9-(4-(4,5-dimethylthiophene-2-carbonyl)-1-oxa-4,9-diazaspiro[5.5]undecan-9-yl)nonylamino)-1-hydroxyethyl)-4-hydroxybenzo[d]thiazol-2(3H)-one] | 87 | 91
3 | O=C(c1ccccc1)N1CCOC2(CCN(CCOc3ccc(CNC[C@H](O)c4ccc(O)c5[nH]c(=O)sc45)cc3)CC2)C1 [Example 223, (R)-7-(2-(4-(2-(4-benzoyl-1-oxa-4,9-diazaspiro[5.5]undecan-9-yl)ethoxy)benzylamino)-1-hydroxyethyl)-4-hydroxybenzo[d]thiazol-2(3H)-one] | 87 | 56
4 | O=C(CCCc1cccs1)N1CCOC2(CCN(CCOc3ccc(CNC[C@H](O)c4ccc(O)c5[nH]c(=O)sc45)cc3)CC2)C1 [Example 224, (R)-4-hydroxy-7-(1-hydroxy-2-(4-(2-(4-(4-(thiophen-2-yl)butanoyl)-1-oxa-4,9-diazaspiro[5.5]undecan-9-yl)ethoxy)benzylamino)ethyl) benzo[d]thiazol-2(3H)-one] | 89 | 70
5 | Cn1cccc1C(=O)N1CCOC2(CCN(CCOc3ccc(CNC[C@H](O)c4ccc(O)c5[nH]c(=O)sc45)cc3)CC2)C1 [Example 225, (R)-4-hydroxy-7-(1-hydroxy-2-(4-(2-(4-(1-methyl-1H-pyrrole-2-carbonyl)-1-oxa-4,9-diazaspiro[5.5]undecan-9-yl)ethoxy)benzylamino)ethyl) benzo[d]thiazol-2(3H)-one] | 74 | 60
6 | O=C(Cc1cccs1)N1CCOC2(CCN(CCOc3ccc(CNC[C@H](O)c4ccc(O)c5[nH]c(=O)sc45)cc3)CC2)C1 [Example 226, (R)-4-hydroxy-7-(1-hydroxy-2-(4-(2-(4-(2-(thiophen-2-yl)acetyl)-1-oxa-4,9-diazaspiro[5.5]undecan-9-yl)ethoxy)benzylamino)ethyl) benzo[d]thiazol-2(3H)-one] | 76 | 53
7 | O=C(Cc1ccccc1)N1CCOC2(CCN(CCOc3ccc(CNC[C@H](O)c4ccc(O)c5[nH]c(=O)sc45)cc3)CC2)C1 [Example 227, (R)-4-hydroxy-7-(1-hydroxy-2-(4-(2-(4-(2-phenylacetyl)-1-oxa-4,9-diazaspiro[5.5]undecan-9-yl)ethoxy)benzylamino)ethyl) benzo[d]thiazol-2(3H)-one] | 80 | 48
8 | O=C(CCc1ccccc1)N1CCOC2(CCN(CCOc3ccc(CNC[C@H](O)c4ccc(O)c5[nH]c(=O)sc45)cc3)CC2)C1 [Example 228, (R)-4-hydroxy-7-(1-hydroxy-2-(4-(2-(4-(3-phenylpropanoyl)-1-oxa-4,9-diazaspiro[5.5]undecan-9-yl)ethoxy)benzylamino)ethyl) benzo[d]thiazol-2(3H)-one] | 67 | 22
9 | O=C(CCCc1ccccc1)N1CCOC2(CCN(CCOc3ccc(CNC[C@H](O)c4ccc(O)c5[nH]c(=O)sc45)cc3)CC2)C1 [Example 229, (R)-4-hydroxy-7-(1-hydroxy-2-(4-(2-(4-(4-phenylbutanoyl)-1-oxa-4,9-diazaspiro[5.5]undecan-9-yl)ethoxy)benzylamino)ethyl) benzo[d]thiazol-2(3H)-one] | 83 | 67
10 | CC(C)(C(=O)N1CCOC2(CCN(CCOc3ccc(CNC[C@H](O)c4ccc(O)c5[nH]c(=O)sc45)cc3)CC2)C1)c1ccccc1 [Example 230, (R)-4-hydroxy-7-(1-hydroxy-2-(4-(2-(4-(2-methyl-2-phenylpropanoyl)-1-oxa-4,9-diazaspiro[5.5]undecan-9-yl)ethoxy)benzylamino)ethyl) benzo[d]thiazol-2(3H)-one] | 70 | 31
11 | O=C(c1ccc(Cl)s1)N1CCOC2(CCN(CCOc3ccc(CNC[C@H](O)c4ccc(O)c5[nH]c(=O)sc45)cc3)CC2)C1 [Example 231, (R)-7-(2-(4-(2-(4-(5-chlorothiophene-2-carbonyl)-1-oxa-4,9-diazaspiro[5.5]undecan-9-yl)ethoxy)benzylamino)-1-hydroxyethyl)-4-hydroxybenzo[d] thiazol-2(3H)-one] | 53 | 91
12 | Cc1ccsc1C(=O)N1CCOC2(CCN(CCOc3ccc(CNC[C@H](O)c4ccc(O)c5[nH]c(=O)sc45)cc3)CC2)C1 [Example 232, (R)-4-hydroxy-7-(1-hydroxy-2-(4-(2-(4-(3-methylthiophene-2-carbonyl)-1-oxa-4,9-diazaspiro[5.5]undecan-9-yl)ethoxy)benzylamino)ethyl) benzo[d]thiazol-2(3H)-one] | 83 | 56
13 | O=C(Cc1ccsc1)N1CCOC2(CCN(CCOc3ccc(CNC[C@H](O)c4ccc(O)c5[nH]c(=O)sc45)cc3)CC2)C1 [Example 233, (R)-4-hydroxy-7-(1-hydroxy-2-(4-(2-(4-(2-(thiophen-3-yl)acetyl)-1-oxa-4,9-diazaspiro[5.5]undecan-9-yl)ethoxy)benzylamino)ethyl) benzo[d]thiazol-2(3H)-one] | 82 | 51
14 | Cc1ccoc1C(=O)N1CCOC2(CCN(CCOc3ccc(CNC[C@H](O)c4ccc(O)c5[nH]c(=O)sc45)cc3)CC2)C1 [Example 234, (R)-4-hydroxy-7-(1-hydroxy-2-(4-(2-(4-(3-methylfuran-2-carbonyl)-1-oxa-4,9-diazaspiro[5.5]undecan-9-yl)ethoxy)benzylamino)ethyl) benzo[d]thiazol-2(3H)-one] | 78 | 80
15 | O=C(c1cc2ccccc2s1)N1CCOC2(CCN(CCOc3ccc(CNC[C@H](O)c4ccc(O)c5[nH]c(=O)sc45)cc3)CC2)C1 [Example 235, (R)-7-(2-(4-(2-(4-(benzo[b]thiophene-2-carbonyl)-1-oxa-4,9-diazaspiro[5.5]undecan-9-yl)ethoxy)benzylamino)-1-hydroxyethyl)-4-hydroxy-benzo[d]thiazol-2(3H)-one] | 97 | 29
16 | Cc1cc(C(=O)N2CCOC3(CCN(CCOc4ccc(CNC[C@H](O)c5ccc(O)c6[nH]c(=O)sc56)cc4)CC3)C2)oc1C [Example 236, (R)-7-(2-(4-(2-(4-(4,5-dimethylfuran-2-carbonyl)-1-oxa-4,9-diazaspiro[5.5]undecan-9-yl)ethoxy)benzylamino)-1-hydroxyethyl)-4-hydroxy-benzo[d]thiazol-2(3H)-one] | 73 | 30
17 | Cc1cccc(C(=O)N2CCOC3(CCN(CCOc4ccc(CNC[C@H](O)c5ccc(O)c6[nH]c(=O)sc56)cc4)CC3)C2)n1 [Example 237, (R)-4-hydroxy-7-(1-hydroxy-2-(4-(2-(4-(6-methylpicolinoyl)-1-oxa-4,9-diazaspiro[5.5]undecan-9-yl)ethoxy)benzylamino)ethyl) benzo[d]thiazol-2(3H)-one] | 62 | 46
